According to the NIST ThermoML archive (doi:10.1021/je060032n):
Numbers after ± are expanded uncertainties.

Assay: refractive index (Na D-line) (dimensionless); xn = mol fraction of the nth substance listed
Conditions: 101 kPa, Liquid, Standard Abbe refractometry

NCCNCCO [N-(2-aminoethyl)ethanolamine] + O
refractive index (298.15 K, x1 = 0.05): 1.37012 ± 0.00044
refractive index (298.15 K, x1 = 0.07): 1.38204 ± 0.00039
refractive index (298.15 K, x1 = 0.1): 1.39796 ± 0.00044
refractive index (298.15 K, x1 = 0.2): 1.43314 ± 0.00085
refractive index (298.15 K, x1 = 0.3): 1.45253 ± 0.00041
refractive index (298.15 K, x1 = 0.4): 1.46321 ± 0.00034
refractive index (298.15 K, x1 = 0.5): 1.4703 ± 0.00038
refractive index (298.15 K, x1 = 0.5996): 1.47498 ± 0.00043
refractive index (298.15 K, x1 = 0.7011): 1.47851 ± 0.00046
refractive index (298.15 K, x1 = 0.8002): 1.48101 ± 0.00048
refractive index (298.15 K, x1 = 0.8979): 1.48289 ± 0.0005
refractive index (298.15 K, x1 = 1): 1.48454 ± 0.00052
refractive index (303.15 K, x1 = 0.05): 1.36931 ± 0.00045
refractive index (303.15 K, x1 = 0.07): 1.3811 ± 0.00043
refractive index (303.15 K, x1 = 0.1): 1.39682 ± 0.00039
refractive index (303.15 K, x1 = 0.2): 1.4318 ± 0.00037
refractive index (303.15 K, x1 = 0.3): 1.45087 ± 0.00042
refractive index (303.15 K, x1 = 0.4): 1.46158 ± 0.00045
refractive index (303.15 K, x1 = 0.5): 1.46857 ± 0.00047
refractive index (303.15 K, x1 = 0.5996): 1.47321 ± 0.00049
refractive index (303.15 K, x1 = 0.7011): 1.47671 ± 0.00049
refractive index (303.15 K, x1 = 0.8002): 1.47918 ± 0.0005
refractive index (303.15 K, x1 = 0.8979): 1.48103 ± 0.00051
refractive index (303.15 K, x1 = 1): 1.48269 ± 0.00053
refractive index (313.15 K, x1 = 0.05): 1.36749 ± 0.00046
refractive index (313.15 K, x1 = 0.07): 1.37909 ± 0.00043
refractive index (313.15 K, x1 = 0.1): 1.39453 ± 0.00042
refractive index (313.15 K, x1 = 0.2): 1.4289 ± 0.00045
refractive index (313.15 K, x1 = 0.3): 1.44762 ± 0.00047
refractive index (313.15 K, x1 = 0.4): 1.45811 ± 0.00048
refractive index (313.15 K, x1 = 0.5): 1.46502 ± 0.00049
refractive index (313.15 K, x1 = 0.5996): 1.46961 ± 0.00049
refractive index (313.15 K, x1 = 0.7011): 1.47308 ± 0.0005
refractive index (313.15 K, x1 = 0.8002): 1.47552 ± 0.00051
refractive index (313.15 K, x1 = 0.8979): 1.47734 ± 0.00052
refractive index (313.15 K, x1 = 1): 1.47884 ± 0.00053
refractive index (323.15 K, x1 = 0.05): 1.36542 ± 0.00046
refractive index (323.15 K, x1 = 0.07): 1.37696 ± 0.00043
refractive index (323.15 K, x1 = 0.1): 1.39214 ± 0.00042
refractive index (323.15 K, x1 = 0.2): 1.42583 ± 0.00046
refractive index (323.15 K, x1 = 0.3): 1.44425 ± 0.00047
refractive index (323.15 K, x1 = 0.4): 1.45463 ± 0.00048
refractive index (323.15 K, x1 = 0.5): 1.46146 ± 0.00049
refractive index (323.15 K, x1 = 0.5996): 1.46604 ± 0.0005
refractive index (323.15 K, x1 = 0.7011): 1.46938 ± 0.00051
refractive index (323.15 K, x1 = 0.8002): 1.47177 ± 0.00051
refractive index (323.15 K, x1 = 0.8979): 1.47359 ± 0.00052
refractive index (323.15 K, x1 = 1): 1.47516 ± 0.00053
refractive index (333.15 K, x1 = 0.05): 1.36367 ± 0.00052
refractive index (333.15 K, x1 = 0.07): 1.37507 ± 0.00045
refractive index (333.15 K, x1 = 0.1): 1.38992 ± 0.00057
refractive index (333.15 K, x1 = 0.2): 1.42264 ± 0.00087
refractive index (333.15 K, x1 = 0.3): 1.44087 ± 0.00069
refractive index (333.15 K, x1 = 0.4): 1.45107 ± 0.00058
refractive index (333.15 K, x1 = 0.5): 1.45777 ± 0.00055
refractive index (333.15 K, x1 = 0.5996): 1.46223 ± 0.00054
refractive index (333.15 K, x1 = 0.7011): 1.4656 ± 0.00053
refractive index (333.15 K, x1 = 0.8002): 1.46805 ± 0.00053
refractive index (333.15 K, x1 = 0.8979): 1.46977 ± 0.00053
refractive index (333.15 K, x1 = 1): 1.47128 ± 0.00054
